Measurements published in patent US20190284192A1, “NITROGENOUS MACROCYCLIC COMPOUND, PREPARATION METHOD THEREFOR, PHARMACEUTICAL COMPOSITION AND APPLICATION THEREOF” (LUOXIN PHARMACEUTICAL (SHANGHAI) CO., LTD., priority 2016, published 2019).
Several values for one entry are separate records, joined by “and”; a condition that tells them apart may be missing. Equal entries are not always repeated.

How the values were obtained:
[1] = molecular target: T1, BRD4 (BD2) (Homo sapiens, UniProt O60885); assay: BRD4 (BD2) bromodomain binding, HTRF; conditions: 2 h incubation at r.t.
T1 construct: Each member comprises two tandem bromodomains (BD1 and BD2) for recognizing the acetylated lysine residues

[2] = Body weight of MV-4-11 tumor-bearing mice during treatment; format: in vivo; conditions: for Average RCBW, Treatment end Day 15: relative body weight change vs Day 1; for Average RCBW, Treatment end Day 15 / Average body weight, Treatment end Day 15 / Average body weight, Treatment start Day 1: intragastric QD*14, ABBV-075 3, GSK762 15, 4009 10 mg/kg; for Average body weight, Treatment end Day 15 / Average body weight, Treatment start Day 1: x ± SEM
Experimental: The preparation and any revision of this experimental protocol are carried out in accordance with the evaluation criteria of the “Institute for Animal Care and Use (IACUC)” of Shanghai Chempartner Chemical Research Co., Ltd. The use and welfare of laboratory animals are carried out in accordance with the provisions of the Association for Assessment and Accreditation of Laboratory Animal Care (AAALAC). Animals are monitored daily for health and death. Routine examinations include observations of the effects of the test substance and the drug on the daily behavior of the animal such as behavioral activities, intake of water and feeds, weight change (three weights measured weekly), appearance signs or other anormal circumstance. The number of animal deaths and side effects in the group were recorded based on the number of animals in each group.

[3] = Metabolic stability in mouse liver microsomes; format: in vitro ADME; conditions: mouse liver microsomes 0.5 mg/mL, NADPH, 37° C.; for CLint scaled at 1 µM: pH 7.4, read-out: MLM_CLint
Outline: (§1)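 Compound at 1.5 μM in liver microsome dosing solution (pH 7.4 potassium phosphate, 1.0 mM EDTA) was incubated at 37 °C with NADPH and sampled at 0, 5, 15, 30, 45 min in duplicate, quenched with ACN. LC-MS/MS remaining compound fit to first-order decay; T1/2 = 0.693/K.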

[4] = tested on: MV-4-11 subcutaneous xenograft tumor; assay: Anti-tumor efficacy in vivo, MV-4-11 subcutaneous xenograft model; parameters: species or system BALB/c nude mice; conditions: for anti-tumor effect on the MV-4-11 cell xenograft tumor mouse model: ABBV-075 3 mg/kg, GSK762 15 mg/kg, 4009 10 mg/kg; for anti-tumor effect on the MV-4-11 cell xenograft tumor mouse model / T/C % / Average tumor weight, 15th day of treatement / Average tumor volume, Treatement starts 1st day / Tumor volume TGI (%) 4th day / Tumor volume TGI (%) 6th day / Tumor volume TGI (%) 8th day / Tumor volume TGI (%) 11th day / Tumor volume TGI (%) 13th day / Tumor volume TGI (%) 15th day / Average tumor volume, Treatement ends 15th day: intragastric QD*14; for T/C %: TRTV/CRTV; for T/C % / P, tumor volume difference between the control group and the administrated group / Average tumor weight, 15th day of treatement / Average tumor volume, Treatement starts 1st day / Tumor volume TGI (%) 4th day / Tumor volume TGI (%) 6th day / Tumor volume TGI (%) 8th day / Tumor volume TGI (%) 11th day / Tumor volume TGI (%) 13th day / Tumor volume TGI (%) 15th day / Average tumor volume, Treatement ends 15th day: ABBV-075 3, GSK762 15, 4009 10 mg/kg; for T/C % / Tumor volume TGI (%) 15th day / Average tumor volume, Treatement ends 15th day: 15th day; for P, tumor volume difference between the control group and the administrated group: Two-way Anova Bonferroni post-test; for Average tumor volume, Treatement ends 15th day: 10 mg/kg
Experimental: According to the growth of the cells, the treatment was passaged twice a week. When the cells are in the exponential growth phase, the cells are collected, counted, and inoculated.
Experimental protocol: 0.2 mL of cell suspension containing about 5×10^MV-4-11 cells (cell suspended in IMDM medium and added with 50% Matrigel) was inoculated subcutaneously into the right back of each mouse. Group administration was initiated when the average tumor volume reached approximately 136.94 mm^3 (day 15 post inoculation). Grouping method: Animals were weighed before dosing and tumor volume was measured. Grouping designed based on tumor volume.
The experimental indicator is to investigate whether tumor growth can be inhibited, delayed or cured. Tumor diameters were measured with vernier calipers three times a week. The formula for calculating tumor volume is: V=0.5×a×b^2, a and b represent the long and short diameters of the tumor, respectively. The antitumor effect of the compound was evaluated by T/C (%). T/C %=TRTV/CRTV×100% (TRTV: treatment group RTV; CRTV: negative comparative group RTV). The relative tumor volume RTV is calculated as RTV=Vt/V1. Where V1 is the measured tumor volume at the time of group administration (i.e., Day 1), and Vt is the tumor volume at each measurement.
The tumor volume and tumor size were analysed by statistical software. GraphPad Prism software was used for analyzation, p<0.05 is considered to have significant difference, p<0.01 is considered to have extremely significant difference.
Two-way Anova Bonferroni post-test is used to compare the tumor volume difference between the control group and the treatment group.

[5] = Metabolic stability in human liver microsomes; format: in vitro ADME; conditions: human liver microsomes 0.5 mg/mL, NADPH, 37° C.; for CLint scaled at 1 µM: pH 7.4, read-out: HLM_CLint
Outline: as §1

[6] = molecular target: T2, BRD4 (BD1) (Homo sapiens, UniProt O60885); assay: BRD4 (BD1) bromodomain binding, HTRF; conditions: 2 h incubation at r.t.
T2 construct: Each member comprises two tandem bromodomains (BD1 and BD2) for recognizing the acetylated lysine residues

CCS(=O)(=O)Nc1ccc(Oc2ccc(F)cc2F)c(-c2cn(C)c(=O)c3[nH]ccc23)c1 [ABBV-075]
IC50 [1]: 1 nM
Average RCBW, Treatment end Day 15 [2]: 2.72%
Average body weight, Treatment end Day 15 [2]: 21.95 ± 0.36 g
Average body weight, Treatment start Day 1 [2]: 21.36 ± 0.21 g
MLM_T1/2 [3]: 81.11 min
CLint scaled at 1 µM [3]: 67.3 mL/min/kg
anti-tumor effect on the MV-4-11 cell xenograft tumor mouse model [4]: significant anti-tumor effect
T/C % [4]: 34.24%
P, tumor volume difference between the control group and the administrated group ([4]; day 1 after administration): P > 0.05
P, tumor volume difference between the control group and the administrated group ([4]; day 4 after administration): P > 0.05
P, tumor volume difference between the control group and the administrated group ([4]; day 6 after administration): P > 0.05
P, tumor volume difference between the control group and the administrated group ([4]; day 8 after administration): P > 0.05
P, tumor volume difference between the control group and the administrated group ([4]; day 11 after administration): P < 0.01 (***)
P, tumor volume difference between the control group and the administrated group ([4]; day 13 after administration): P < 0.01 (***)
P, tumor volume difference between the control group and the administrated group ([4]; day 15 after administration): P < 0.01 (***)
Average tumor weight, 15th day of treatement [4]: 0.314 ± 0.05 g
Average tumor volume, Treatement starts 1st day [4]: 136.45 ± 14.05 mm^3
Tumor volume TGI (%) 4th day [4]: 97.12%
Tumor volume TGI (%) 6th day [4]: 69.45%
Tumor volume TGI (%) 8th day [4]: 73.8%
Tumor volume TGI (%) 11th day [4]: 72.41%
Tumor volume TGI (%) 13th day [4]: 75.81%
Tumor volume TGI (%) 15th day [4]: 75.56%
Average tumor volume, Treatement ends 15th day [4]: 346.72 mm^3 and 346.72 ± 68.96 mm^3
HLM_T1/2 [5]: 1465.60 min
CLint scaled at 1 µM [5]: 1.19 mL/min/kg
IC50 [6]: 2 nM

CCS(=O)(=O)Cc1ccc2c(c1)-c1cn(C)c(=O)cc1CN=C2c1ccc(F)cc1 [Compound 4009, 7-(4-fluorophenyl)-2-methyl-10-(ethylsulfonemethyl)-2H-benzo[c]pyrido[3,4-e]azepin-3(5H)-ketone]
IC50 [1]: 5 nM
body weight and condition of mice during the entire administration period ([2]; 4009 10 mg/kg intragastric QD*14): did not decrease in body weight
Average RCBW, Treatment end Day 15 [2]: 2.82%
Average body weight, Treatment end Day 15 [2]: 21.88 ± 0.73 g
Average body weight, Treatment start Day 1 [2]: 21.26 ± 0.38 g
MLM_T1/2 [3]: 588.07 min
CLint scaled at 1 µM [3]: 9.28 mL/min/kg
anti-tumor effect on the MV-4-11 cell xenograft tumor mouse model [4]: significant anti-tumor effect
T/C % [4]: 30.13%
P, tumor volume difference between the control group and the administrated group ([4]; day 1 after administration): P > 0.05
P, tumor volume difference between the control group and the administrated group ([4]; day 4 after administration): P > 0.05
P, tumor volume difference between the control group and the administrated group ([4]; day 6 after administration): P > 0.05
P, tumor volume difference between the control group and the administrated group ([4]; day 8 after administration): P > 0.05
P, tumor volume difference between the control group and the administrated group ([4]; day 11 after administration): P < 0.001 (***)
P, tumor volume difference between the control group and the administrated group ([4]; day 13 after administration): P < 0.001 (***)
P, tumor volume difference between the control group and the administrated group ([4]; day 15 after administration): P < 0.001 (***)
Average tumor weight, 15th day of treatement [4]: 0.276 ± 0.08 g
Average tumor volume, Treatement starts 1st day [4]: 136.78 ± 14.97 mm^3
Tumor volume TGI (%) 4th day [4]: 81.27%
Tumor volume TGI (%) 6th day [4]: 75.63%
Tumor volume TGI (%) 8th day [4]: 79.64%
Tumor volume TGI (%) 11th day [4]: 83.17%
Tumor volume TGI (%) 13th day [4]: 81.77%
Tumor volume TGI (%) 15th day [4]: 81.16%
Average tumor volume, Treatement ends 15th day [4]: 305.80 mm^3 and 305.80 ± 81.48 mm^3
HLM_T1/2 [5]: 471.41 min
CLint scaled at 1 µM [5]: 3.69 mL/min/kg
IC50 [6]: 6 nM

CCS(=O)(=O)Cc1ccc2c(c1)-c1cn(C)c(=O)cc1[C@H](C)N=C2c1ccc(F)cc1 [Compound 4026, (S)-10-((ethylsulfone)methyl)-7-(4-fluorophenyl)-2,5-dimethyl-2,5-dihydro-3H-benzo[c]pyrido[3,4-e]azepin-3-ketone]
IC50 [1]: 1 nM
MLM_T1/2 [3]: ∞
HLM_T1/2 [5]: ∞
IC50 [6]: 2 nM
